# Laboratory results reported in patent US8193246B2, “Lipids and lipid assemblies comprising transfection enhancer elements” (Marina Biotech, Inc., priority 2006, dated 2012).
# Tests used:
# [1] = system: HeLa-Cells; test: In vitro transfection with liposomes encapsulating carboxyfluorescein, fluorescence microscopy (Example 5); assay type: cell-based; conditions: 0.5 mM CF/well, FIG. 7-11
# Procedure: HeLa-Cells were obtained from DSMZ (German Collection of Micro Organism and Cell Cultures) and maintained in DMEM. Media were purchased from Gibco-Invitrogen and supplemented with 10% FCS at 37° C. under 5% CO2. The cells were plated at a density of 2×10^4 cells/ml and cultivated in 100 μl medium. After 16 h the media were replaced with Opti-MEM I (Gibco) containing liposomes (L1-L24) with a total amount of 50 to 200 ng Cy3-labelled oligonucleotides or 0.5 mM CF/well. Cell culture dishes were centrifuged for 1 h at 450 g at 37° C., followed by an incubation of 3 h hours at 37° C. under 5% CO2. The transfection mixture was replaced by the above mentioned medium and cells were incubated for further 24-48 h hours. Transfection efficiency and cellular distribution was determined after 4 or 24 hours by light and fluorescence microscopy using objectives with 10× or 40× magnification (Axionvert S 100, Carl Zeiss Inc.).
# [2] = system: HeLa-Cells; test: In vitro transfection with liposomes encapsulating carboxyfluorescein (Example 11); assay type: cell-based; conditions: 0.05 mM CF/well, 4 hours, FIG. 17, 18
# Procedure: HeLa-Cells were obtained from DSMZ (German Collection of Micro Organism and Cell Cultures) and maintained in DMEM. Media were purchased from Gibco-Invitrogen and supplemented with 10% FCS at 37° C. under 5% CO2. The cells were plated at a density of 4×10^4 cells/ml and cultivated in 100 μl medium. After 16 h the media were replaced with Opti-MEM I (Gibco) containing liposomes (L-46-L-49) with a total amount of 0.05 mM CF/well. Cell culture dishes were incubated for 4 hours at 37° C. under 5% CO2. Transfection efficiency and cellular distribution was determined after 4 hours by fluorescence microscopy with an exposure time of 5 seconds and using the 10/100 fold objective (Axionvert S 100, Carl Zeiss Inc.). Before imaging cells were washed several times (5×) with PBS pH7.4 and analysed directly (incubation time 20 to 30 sec.) in 50 μl PBS pH7.4. As control free CF (0.1 mM) in PBS was added to the cells.
substance,measurement,setting,value
carboxyfluorescein [free carboxyfluorescein],fluorescence signal of carboxyfluorescein in cytosol or nucleus,[1],do not show any fluorescence signals
same,fluorescence signal of carboxyfluorescein,[2],no fluorescence signal was observed
